In ChEMBL document CHEMBL3882724 (2013):

Key:
[1] = target: T1, Steroid 17-alpha-hydroxylase/17,20 lyase (Homo sapiens, UniProt P05093); experiment: Inhibition of CYP17 in human testicular microsomes using 17alpha-hydroxypregnenolone as substrate assessed as decrease in DHEA levels at 10 nM after 90 mins by ELISA relative to control; design: species or system Testis; details: 1.5 h
T1 sequence (P05093 whole entry): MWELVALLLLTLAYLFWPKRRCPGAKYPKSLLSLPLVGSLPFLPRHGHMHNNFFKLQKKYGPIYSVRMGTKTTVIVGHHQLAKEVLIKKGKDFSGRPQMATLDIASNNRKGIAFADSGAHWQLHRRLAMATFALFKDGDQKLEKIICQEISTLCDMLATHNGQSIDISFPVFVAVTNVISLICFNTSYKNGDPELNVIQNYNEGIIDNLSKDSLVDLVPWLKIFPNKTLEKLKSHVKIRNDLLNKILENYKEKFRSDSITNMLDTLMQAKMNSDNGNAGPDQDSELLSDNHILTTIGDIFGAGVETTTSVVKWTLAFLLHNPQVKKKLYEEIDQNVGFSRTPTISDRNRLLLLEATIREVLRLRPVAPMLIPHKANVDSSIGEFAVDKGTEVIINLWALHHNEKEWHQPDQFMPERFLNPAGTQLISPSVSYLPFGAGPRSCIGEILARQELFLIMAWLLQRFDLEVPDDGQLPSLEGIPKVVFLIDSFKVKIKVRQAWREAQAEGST

CYP11B = target: T2, CYP11B (Rattus norvegicus, UniProt P15393+P30099); experiment: Inhibition of Sprague-Dawley rat adrenal mitochondrial CYP11B assessed as decrease in conversion of 11-deoxycortisol to cortisol at 100 nM incubated for 60 mins by ELISA relative to control; assay type: protein assay; details: adrenal mitochondria, probe 11-deoxycortisol
T2 sequence (P30099 whole entry): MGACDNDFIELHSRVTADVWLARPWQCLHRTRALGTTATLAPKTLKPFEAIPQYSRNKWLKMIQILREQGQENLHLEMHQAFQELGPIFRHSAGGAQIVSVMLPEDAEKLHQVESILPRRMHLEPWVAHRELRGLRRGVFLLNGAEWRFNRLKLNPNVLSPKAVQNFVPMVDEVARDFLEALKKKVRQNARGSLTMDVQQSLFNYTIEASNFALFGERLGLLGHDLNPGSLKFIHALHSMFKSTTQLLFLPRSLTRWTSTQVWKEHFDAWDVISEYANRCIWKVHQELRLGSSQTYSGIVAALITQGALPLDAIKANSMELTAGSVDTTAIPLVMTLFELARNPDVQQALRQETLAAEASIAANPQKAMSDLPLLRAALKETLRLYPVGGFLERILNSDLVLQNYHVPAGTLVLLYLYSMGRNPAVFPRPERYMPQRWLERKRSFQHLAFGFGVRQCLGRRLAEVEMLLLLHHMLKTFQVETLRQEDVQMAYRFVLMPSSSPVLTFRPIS
T2 sequence (P15393 whole entry): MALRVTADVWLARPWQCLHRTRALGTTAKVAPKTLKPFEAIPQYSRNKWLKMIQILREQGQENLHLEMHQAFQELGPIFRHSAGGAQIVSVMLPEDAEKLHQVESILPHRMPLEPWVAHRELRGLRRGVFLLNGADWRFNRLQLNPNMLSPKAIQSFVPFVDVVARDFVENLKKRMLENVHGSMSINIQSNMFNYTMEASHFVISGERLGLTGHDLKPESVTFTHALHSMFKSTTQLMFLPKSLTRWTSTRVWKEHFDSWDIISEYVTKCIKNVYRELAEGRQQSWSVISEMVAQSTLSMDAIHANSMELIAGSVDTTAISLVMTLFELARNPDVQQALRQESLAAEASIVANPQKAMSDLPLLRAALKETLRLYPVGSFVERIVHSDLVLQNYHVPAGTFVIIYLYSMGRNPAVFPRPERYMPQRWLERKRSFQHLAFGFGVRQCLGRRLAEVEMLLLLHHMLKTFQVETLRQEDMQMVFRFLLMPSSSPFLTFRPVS

[2] = Half life in human liver microsomes at 1 uM by LC-MS/MS analysis
[3] = target: T3, CYP21 (steroid 21-hydroxylase) (Homo sapiens, UniProt P08686); experiment: Inhibition of human CYP21 transfected in HEK293 cells assessed as decrease in conversion of progesterone to 11-deoxycorticosterone preincubated for 5 hrs followed by progesterone addition measured after 20 hrs by ELISA; assay type: cell-based; design: concentration or dose not given beside the values; details: HEK293 cells transfected with human CYP21, probe progesterone
T3 sequence (P08686 whole entry): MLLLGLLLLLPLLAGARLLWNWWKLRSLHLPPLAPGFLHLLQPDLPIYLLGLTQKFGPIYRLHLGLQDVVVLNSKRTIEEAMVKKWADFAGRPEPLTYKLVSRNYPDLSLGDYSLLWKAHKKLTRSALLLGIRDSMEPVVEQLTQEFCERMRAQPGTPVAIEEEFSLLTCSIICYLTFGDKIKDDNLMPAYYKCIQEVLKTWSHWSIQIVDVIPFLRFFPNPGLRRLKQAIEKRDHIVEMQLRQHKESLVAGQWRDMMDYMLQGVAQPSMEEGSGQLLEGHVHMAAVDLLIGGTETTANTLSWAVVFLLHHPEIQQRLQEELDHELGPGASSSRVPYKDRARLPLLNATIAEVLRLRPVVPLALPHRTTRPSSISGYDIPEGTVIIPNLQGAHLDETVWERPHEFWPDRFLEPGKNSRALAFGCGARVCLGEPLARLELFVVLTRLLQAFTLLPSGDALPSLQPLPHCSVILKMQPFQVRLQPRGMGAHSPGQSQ

[4] = target: T1, Steroid 17-alpha-hydroxylase/17,20 lyase; experiment: Inhibition of CYP17 in human testicular microsomes using 17alpha-hydroxypregnenolone as substrate assessed as decrease in DHEA levels after 90 mins by ELISA; design: species or system Testis
[5] = target: T1, Steroid 17-alpha-hydroxylase/17,20 lyase; experiment: Inhibition of CYP17 in human H295R cells assessed as decrease in testosterone levels after 24 hrs by ELISA; assay type: cell-based
[6] = Half life in rat liver microsomes at 1 uM by LC-MS/MS analysis

Structure (SMILES) | inhibition at 0.01 µM [1] | inhibition at 1 h, 0.1 µM (CYP11B) | half-life at 1 µM [2] | inhibition at 20 h [3] | IC50 [4] | IC50 [5] | half-life at 1 µM [6]
COc1cncc(C2=CC[C@H]3[C@@H]4CC=C5N(C)C(=O)CCC[C@]5(C)[C@H]4CC[C@]23C)c1 | ≥ 80% | ≥ 50% | 1 to 50 min |  |  |  | 
COc1cncc(C2=CC[C@H]3[C@@H]4CC=C5N(C)C(=O)C[C@]5(C)[C@H]4CC[C@]23C)c1 |  | < 32% | 1 to 50 min | ≥ 50% | ≤ 11 nM |  | 
Cc1ccncc1C1=CCC2[C@@H]3CN(C)C4=CC(=O)CC[C@]4(C)[C@H]3CC[C@]12C (single isomer, unassigned) |  | ≥ 50% |  | 10 to 50% |  | ≤ 15 nM | 
C[C@]12CC[C@H](O)CC1=CC[C@@H]1[C@@H]2CC[C@]2(C)C(c3cccnc3)=CC[C@@H]12 [ABIRATERONE] | ≥ 80% | < 32% | 1 to 50 min | ≥ 50% | ≤ 11 nM | ≤ 15 nM | 
CC(=O)O[C@H]1CC[C@@]2(C)C(=CC[C@H]3C4=CC=C(c5cccnc5)[C@@]4(C)CC[C@@H]32)C1 | 1 to 50% | ≥ 50% |  |  |  |  | 
CCCC(=O)N1CCC2CC[C@@H]3[C@H](CC[C@]4(C)C(n5ccnc5)=CC[C@@H]34)[C@@]2(C)CC1 (some centres undefined) |  | < 32% |  | ≥ 50% | ≤ 11 nM |  | 
Cc1cncc(C2=CC[C@H]3[C@@H]4CC=C5N(C)C(=O)CCC[C@]5(C)[C@H]4CC[C@]23C)c1 | 50 to 80% | ≥ 50% |  |  |  |  | 
Cc1cncc(C2=CC[C@H]3[C@@H]4CC=C5N(C)C(=O)C[C@]5(C)[C@H]4CC[C@]23C)c1 |  | < 32% |  | 10 to 50% |  |  | 
CN1C(=O)CC[C@@]2(C)C1=CC[C@@H]1[C@@H]2CC[C@]2(C)C(c3cncc(F)c3)=CC[C@@H]12 |  | ≥ 50% |  | 10 to 50% |  |  | 
CCC(=O)N1CCC2CC[C@@H]3[C@H](CC[C@]4(C)C(c5cccnc5)=CC[C@@H]34)[C@@]2(C)CC1 (some centres undefined) |  | < 32% |  | 10 to 50% | ≤ 11 nM |  | 
COc1cncc(C2=CC[C@H]3[C@@H]4CCC5=CC(=O)N(C)CC[C@]5(C)[C@H]4CC[C@]23C)c1 | 50 to 80% | < 32% | 1 to 10 min |  | ≤ 11 nM |  | 1 to 10 min
COc1cncc(C2CC[C@H]3[C@@H]4CCC5=CC(=O)NCC[C@]5(C)[C@H]4CC[C@]23C)c1 (some centres undefined) | ≥ 80% | < 32% | 10 to 60 min |  | ≤ 11 nM |  | 10 to 60 min
CC(=O)N[C@@H]1CC[C@@]2(C)C(=CC[C@@H]3[C@@H]2CC[C@]2(C)C(n4ccnc4)=CC[C@@H]32)C1 |  | ≥ 50% | ≥ 50 min | ≥ 50% | ≤ 11 nM | ≤ 15 nM | 
CN1C(=O)C[C@@]2(C)C1=CC[C@@H]1[C@@H]2CC[C@]2(C)C(c3cccnc3)=CC[C@@H]12 |  | ≥ 50% |  | ≥ 50% | ≤ 11 nM |  | 
CCOc1cncc(C2=CC[C@H]3[C@@H]4CC=C5N(C)C(=O)C[C@]5(C)[C@H]4CC[C@]23C)c1 |  | ≥ 50% |  | 10 to 50% |  |  | 
Cc1ccncc1C1=CC[C@H]2[C@@H]3CC[C@H]4CC(=O)NCC[C@]4(C)[C@H]3CC[C@]12C |  | < 32% |  | 10 to 50% |  | ≤ 15 nM | 
CC(=O)N1CCC[C@@]2(C)[C@@H](CC[C@@H]3[C@@H]2CC[C@]2(C)C(n4ccnc4)=CC[C@@H]32)C1 |  | ≥ 50% |  | 10 to 50% |  |  | 
C[C@]12CC[C@H](O)CC1=CC[C@@H]1[C@@H]2CC[C@]2(C)C(n3cncc3C#N)=CC[C@@H]12 |  | ≥ 50% |  | 10 to 50% |  |  | 
CC(=O)N[C@@H]1CC[C@@]2(C)C(=CC[C@H]3C4=CC=C(n5ccnc5)[C@@]4(C)CC[C@@H]32)C1 |  | < 32% |  | 10 to 50% |  |  | 
CN1C(=O)CC[C@@]2(C)C1=CC[C@@H]1[C@@H]2CC[C@]2(C)C(n3cncc3C#N)=CC[C@@H]12 |  | < 32% |  | < 10% |  |  | 
C[C@]12CCCCC1C(=O)C[C@@H]1[C@@H]2CC[C@]2(C)C(n3ccnc3)=CC[C@@H]12 (some centres undefined) | ≥ 80% | < 32% |  |  | ≤ 11 nM |  | 
CCC(=O)N1CCC[C@@]2(C)C(CC[C@@H]3[C@@H]2CC[C@]2(C)C(c4cccnc4)=CC[C@@H]32)C1 (some centres undefined) |  | ≥ 50% |  | 10 to 50% | ≤ 11 nM |  | 
C[C@]12CC[C@@H](NC(=O)C3CC3)CC1=CC[C@@H]1[C@@H]2CC[C@]2(C)C(n3ccnc3)=CC[C@@H]12 |  | ≥ 50% | 1 to 50 min | ≥ 50% | ≤ 11 nM |  | 
C[C@]12CC[C@H]3[C@@H](CC=C4C[C@H](NC(=O)C5CC5)CC[C@@]43C)C1=CC=C2n1ccnc1 |  | ≥ 50% |  | 10 to 50% |  |  | 
CN1C(=O)CC[C@@]2(C)C1=CC[C@@H]1[C@@H]2CC[C@]2(C)C(n3ccnc3)=CC[C@@H]12 | 50 to 80% | ≥ 50% |  |  |  |  | 
CN1CC[C@@]2(C)C(=CC1=O)CC[C@@H]1[C@@H]2CC[C@]2(C)C(n3ccnc3)=CC[C@@H]12 | ≥ 80% | ≥ 50% | 1 to 50 min |  | ≤ 11 nM |  | 10 to 60 min
CN1C(=O)CCC[C@@]2(C)C1=CC[C@@H]1[C@@H]2CC[C@]2(C)C(c3cccnc3)=CC[C@@H]12 | ≥ 80% | ≥ 50% | 1 to 50 min |  | ≤ 11 nM |  | 
COC(=O)N[C@@H]1CC[C@@]2(C)C(=CC[C@@H]3[C@@H]2CC[C@]2(C)C(n4ccnc4)=CC[C@@H]32)C1 |  | < 32% |  | ≥ 50% | ≤ 11 nM |  | 
CN1CC=C2CC[C@@H]3[C@H](CC[C@]4(C)C(n5ccnc5)=CC[C@@H]34)[C@@]2(C)CC1 | 1 to 50% | < 32% |  |  |  |  | 
